Experimental data published in patent EP1589016A1, “Thio-substituted tricyclic and bicyclic aromatic methanesulfinyl derivatives” (CEPHALON FRANCE, priority 2004, dated 2005).

Test system: Rats
Test: Evaluation of Wake Promoting Activity in Rats (EEG/EMG sleep/wake scoring)
Assay type: in vivo, Wistar rats
Details: i.p. route, 100 mg/kg; for Mean AUC 0-3h, Test compound: n = 4 rats per test compound, group mean, compared with vehicle group (8 rats); for wakefulness compared to the vehicle-treated control groups: rats, p< 0.05 versus vehicle
Method: The methodology utilized for evaluating wake promoting activity of test compounds is based on that described by Edgar and Seidel, Journal of Pharmacology and Experimental Therapeutics, 283:757-769, 1997, and incorporated herein in its entirety by reference.
Animal Surgery. Adult, male Wistar rats (275-320g from Charles River Laboratories, Wilmington, MA) were anesthetized (Nembutal, 45 mg/kg, ip.) and surgically prepared with implants for recording of chronic EEG (encephalographic) and EMG (electromyographic) recording. The EEG implants were made from commercially available components (Plastics One, Roanoke, VA). EEG signals were recorded from stainless steel screw electrodes: 2 frontal (+3.0 mm AP from bregma, ±2.0 mm ML), and 2 occipital (-4.0 mm AP from bregma, ±2.0 mm ML). Two Teflon-coated stainless steel wires were positioned under the nuchal trapezoid muscles for EMG recording. All electrode leads were inserted into a connector pedestal and the pedestal affixed to the skull by application dental acrylic. Antibiotic was administered post surgically and antibiotic cream was applied to the wound edges to prevent infection. At least one week elapsed between surgery and recording.
Recording environment. Postsurgically, rats were housed in pairs in an isolated room. Food and water were available ad libitum, ambient temperature was 21°C, and humidity was 55%. At least 24 hrs prior to recording, they were placed in Nalgene containers (31 x 31 x 31 cm) with a wire-grid top, and entry to the room was prohibited during the day of recording except for dosing. The containers were placed on a rack with two shelves, 4 containers per shelf. Fluorescent overhead room lights were set to a 24 hr. light/dark cycle (on at 7 AM, off at 7 PM). Light levels inside the containers were 38 and 25 lux for the top and bottom shelves respectively. Background white-noise (68db inside the containers) was present in the room to mask ambient sounds.
Data acquisition. EEG and EMG signals were led via cables to a commutator (Plastics One) and then to pre-amplifiers (model 1700, A-M Systems, Carlsborg, WA). EEG and EMG signals were amplified (10K and 1K respectively) and bandpass filtered between 0.3 and 500 Hz for EEG and between 10 and 500 Hz for EMG. These signals were digitized at 128 samples per second using ICELUS sleep research software (M. Opp, U. Texas; see Opp, Physiology and Behavior 63:67-74, 1998, and Imeri, Mancia, and Opp, Neuroscience 92:745-749, 1999, incorporated by reference herein in their entirety) running under Labview 5.1 software and data acquisition hardware (PCI-MIO-16E-4; National Instruments, Austin, TX). On the day of dosing, data was recorded for 6 to 10 hours beginning at 11 AM.
Drug administration and study design. Compounds were evaluated on groups of from 4 to 8 rats carried out over one or two separate test sessions. Each animal was tested with a different compound or vehicle for up to 10 weeks with at least 7 days between successive tests. A vehicle group was included in all experiments, and each animal received vehicle every 4th test. Test compounds were suspended in sterile 0.25% methylcellulose (pH=6.2; Upjohn Co., Kalamazoo, MI) at […]. Although compounds can be administered at dosages greater than 100 mg/kg and are expected to be active under the selection criteria of data analysis, unless otherwise noted, compounds were administered at a single dose of 100 mg/kg. Dosing was carried out at noon, while the rats were predominantly asleep. Each rat was lifted out of its container, given an intraperitoneal injection in a volume of 5 mL/kg, and replaced. Dosing required approximately 30 sec per rat.
Sleep / wake scoring. Sleep and wake activity were determined manually using ICELUS software. […]

| SMILES | Mean AUC 0-3h, Test compound | wakefulness compared to the vehicle-treated control groups |
| --- | --- | --- |
| CC(C)(C)OC(=O)N1CCN(C(=O)CSCc2ccc3oc4ccc(F)cc4c3c2)CC1 [Example 26, 4-[2-(8-fluorodibenzofuran-2-yl-methylsulfanyl)acetyl]-piperazine-1-carboxylic acid tret-butyl ester] | 132.0 % of waiking time x hr | significantly greated wakefulness |
| O=C(C[S+]([O-])Cc1cccc2c1-c1ccccc1C2)N1CCNCC1 (stereo not drawn) [Example 130] | 149.2 % of waiking time x hr | significantly greated wakefulness |
| O=C(C[S+]([O-])Cc1cccc2c1oc1ccccc12)N1CCNCC1 (stereo not drawn) [Example 99] | 129.1 % of waiking time x hr | significantly greated wakefulness |
